{"source": "ChEMBL document CHEMBL5136978", "about": "“Research progress in pharmacological activities and structure-activity relationships of tetralone scaffolds as pharmacophore and fluorescent skeleton” (Eur J Med Chem, 2022)", "key": {"[1]": {"target": "T1, 1,25-dihydroxyvitamin D(3) 24-hydroxylase, mitochondrial (Homo sapiens, UniProt Q07973)", "T1 sequence (Q07973 whole entry)": "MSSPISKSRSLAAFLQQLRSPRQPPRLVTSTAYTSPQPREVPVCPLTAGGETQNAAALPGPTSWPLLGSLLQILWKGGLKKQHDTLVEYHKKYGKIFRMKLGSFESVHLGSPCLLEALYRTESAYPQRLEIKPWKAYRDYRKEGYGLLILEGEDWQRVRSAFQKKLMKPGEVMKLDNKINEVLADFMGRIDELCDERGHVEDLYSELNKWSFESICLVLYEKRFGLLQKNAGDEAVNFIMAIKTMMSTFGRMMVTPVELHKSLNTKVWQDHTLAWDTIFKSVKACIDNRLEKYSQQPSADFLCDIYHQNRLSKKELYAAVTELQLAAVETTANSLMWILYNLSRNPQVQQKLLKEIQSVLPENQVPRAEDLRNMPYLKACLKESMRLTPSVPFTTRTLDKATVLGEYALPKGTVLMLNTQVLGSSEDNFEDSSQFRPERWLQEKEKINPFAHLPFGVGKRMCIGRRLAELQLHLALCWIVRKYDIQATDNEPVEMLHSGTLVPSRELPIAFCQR", "assay": "Displacement of 25-hydroxy-[26,27-methyl-3H]-vitamin D3 from CYP24 in 1,25(OH)2D3-treated human DU-145 cells using 25-(OH)D3 as substrate pretreated with 1,25(OH)2D3 for 24 hrs followed by compound addition measured after 30 mins by HPLC analysis", "format": "cell-based"}, "[2]": {"system": "DU-145", "assay": "Cytotoxicity against 1,25-(OH)2D3-treated human DU-145 cells assessed as cell growth inhibition incubated for 96 hrs and re-dosed after 48 hrs […] by MTT assay relative to control", "format": "functional", "design": "scale not given: the % may be the effect or the level left", "settings": "time 273 hrs"}, "[3]": {"assay": "Antioxidant activity assessed as DPPH radical scavenging activity incubated for 30 mins under dark condition by absorbance based assay", "format": "functional"}, "[4]": {"assay": "Antioxidant activity assessed as superoxide scavenging activity incubated for 20 mins by absorbance based assay", "format": "functional"}, "[5]": {"assay": "Antioxidant activity assessed as hydroxyl radical scavenging activity incubated for 30 mins by absorbance based assay", "format": "functional"}, "[6]": {"target": "T1, 1,25-dihydroxyvitamin D(3) 24-hydroxylase, mitochondrial", "assay": "Inhibition of CYP24 (unknown origin)", "format": "ADME"}, "[7]": {"system": "Nannizzia gypsea", "assay": "Antifungal activity against Microsporum gypseum C 115 2000 assessed as fungal growth inhibition by cup-plate method", "format": "functional"}, "[8]": {"system": "MDA-MB-231", "assay": "Cytotoxicity against human MDA-MB-231 cells assessed as cell growth inhibition incubated for 72 hrs by alamar blue staining based assay", "format": "functional", "settings": "MDA-MB-231, 72 h"}, "[9]": {"system": "MCF7", "assay": "cells", "format": "functional, cell-based", "settings": "Homo sapiens, MCF7, 72 h", "description": "Cytotoxicity against human MCF7 cells assessed as cell growth inhibition incubated for 3 days by MTT assay"}, "[10]": {"target": "T2, Amine oxidase [flavin-containing] A (Homo sapiens, UniProt P21397)", "T2 sequence (P21397 whole entry)": "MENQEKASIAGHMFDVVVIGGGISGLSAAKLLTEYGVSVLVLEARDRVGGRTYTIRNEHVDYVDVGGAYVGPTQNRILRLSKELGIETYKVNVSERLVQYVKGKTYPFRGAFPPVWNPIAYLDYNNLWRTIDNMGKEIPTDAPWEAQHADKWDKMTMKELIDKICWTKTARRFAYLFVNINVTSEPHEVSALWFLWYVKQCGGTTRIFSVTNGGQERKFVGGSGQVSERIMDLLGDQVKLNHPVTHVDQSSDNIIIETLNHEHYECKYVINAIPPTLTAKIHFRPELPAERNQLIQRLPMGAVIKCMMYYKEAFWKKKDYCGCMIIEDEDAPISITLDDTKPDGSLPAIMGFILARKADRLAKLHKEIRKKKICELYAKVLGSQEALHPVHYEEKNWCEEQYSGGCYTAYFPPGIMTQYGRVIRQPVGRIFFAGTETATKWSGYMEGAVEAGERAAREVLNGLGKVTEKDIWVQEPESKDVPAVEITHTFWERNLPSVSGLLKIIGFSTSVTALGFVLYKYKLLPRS", "assay": "Inhibition of human MAO-A assessed as measuring amount of 4-hydroxyquinoline using kynuramine as substrate incubated for 20 mins by fluorescence spectrophotometry"}, "[11]": {"target": "T3, Amine oxidase [flavin-containing] B (Homo sapiens, UniProt P27338)", "T3 sequence (P27338 whole entry)": "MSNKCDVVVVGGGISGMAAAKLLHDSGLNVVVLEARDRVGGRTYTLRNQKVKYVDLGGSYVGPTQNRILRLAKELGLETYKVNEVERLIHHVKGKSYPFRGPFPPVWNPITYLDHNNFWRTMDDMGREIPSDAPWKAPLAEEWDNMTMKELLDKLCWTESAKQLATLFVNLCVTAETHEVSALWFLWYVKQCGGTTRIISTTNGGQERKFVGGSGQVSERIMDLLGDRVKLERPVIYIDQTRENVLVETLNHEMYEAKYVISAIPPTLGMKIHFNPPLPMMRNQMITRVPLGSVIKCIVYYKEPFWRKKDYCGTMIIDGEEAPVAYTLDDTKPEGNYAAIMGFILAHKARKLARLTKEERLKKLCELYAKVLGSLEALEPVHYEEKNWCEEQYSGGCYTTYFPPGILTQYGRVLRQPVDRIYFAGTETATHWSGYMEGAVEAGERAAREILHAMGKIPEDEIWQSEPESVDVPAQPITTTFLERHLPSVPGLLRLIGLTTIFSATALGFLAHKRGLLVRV", "assay": "Inhibition of human MAO-B assessed as measuring amount of 4-hydroxyquinoline using kynuramine as substrate incubated for 20 mins by fluorescence spectrophotometry"}, "[12]": {"organism": "Homo sapiens", "assay": "Selectivity index, ratio of IC50 for human MAO-A to IC50 for human MAO-B"}, "[13]": {"system": "RAW264.7", "assay": "Inhibition of ROS production in LPS-stimulated mouse RAW264.7 cells preincubated for 1 hr followed by LPS stimulation measured after 24 hrs by fluorometry", "format": "functional, cell-based"}, "[14]": {"system": "HepG2", "assay": "Antiproliferative activity against human HepG2 cells assessed as cell growth inhibition at 500 uM for 24 to 72 hrs by MTT assay relative to control", "format": "functional", "design": "scale not given: the % may be the effect or the level left", "settings": "time 24-72 hrs"}, "[15]": {"system": "L02", "assay": "Antiproliferative activity against human L02 cells assessed as cell growth inhibition at 500 uM for 24 to 72 hrs by MTT assay relative to control", "format": "functional", "design": "scale not given: the % may be the effect or the level left", "settings": "time 24-72 hrs"}, "[16]": {"system": "HepG2", "assay": "Downregulation of phosphorylated Akt in human HepG2 cells xenografted in BALB/c mouse at 160 mg/kg/day, ip for 19 days and measured after 24 hrs post last dose by immunohistochemical analysis relative to control", "format": "functional", "settings": "time 20 day"}, "[17]": {"system": "HepG2", "assay": "Downregulation of NF-kappaB in human HepG2 cells xenografted in BALB/c mouse at 160 mg/kg/day, ip for 19 days and measured after 24 hrs post last dose by immunohistochemical analysis relative to control", "format": "functional", "settings": "time 20 day"}, "[18]": {"system": "HepG2", "assay": "Downregulation of MMP9 in human HepG2 cells xenografted in BALB/c mouse at 160 mg/kg/day, ip for 19 days and measured after 24 hrs post last dose by immunohistochemical analysis relative to control", "format": "functional", "settings": "time 20 day"}, "[19]": {"system": "HepG2", "assay": "Downregulation of MMP2 in human HepG2 cells xenografted in BALB/c mouse at 160 mg/kg/day, ip for 19 days and measured after 24 hrs post last dose by immunohistochemical analysis relative to control", "format": "functional", "settings": "time 20 day"}, "[20]": {"target": "T2, Amine oxidase [flavin-containing] A", "assay": "Inhibition of recombinant human MAO-A assessed as measuring amount of 4-hydroxyquinoline using kynuramine as substrate incubated for 20 mins by fluorescence spectrophotometry"}, "[21]": {"target": "T2, Amine oxidase [flavin-containing] A", "assay": "Inhibition of MAO-A (unknown origin)"}, "[22]": {"target": "T3, Amine oxidase [flavin-containing] B", "assay": "Inhibition of MAO-B (unknown origin)"}, "[23]": {"organism": "Homo sapiens", "assay": "Selectivity index, ratio of IC50 for MAO-A (unknown origin) to IC50 for MAO-B (unknown origin)"}, "[24]": {"system": "Candida albicans", "assay": "Antifungal activity against Candida albicans MTCC 227 assessed as fungal growth inhibition", "format": "functional"}, "[25]": {"system": "Aspergillus fumigatus", "assay": "Antifungal activity against Aspergillus fumigatus MTCC 343 assessed as fungal growth inhibition", "format": "functional"}, "[26]": {"system": "Trypanosoma brucei brucei", "assay": "Antitrypanosomal activity against Trypanosoma brucei brucei trypomastigotes assessed as parasite viability measured after 48 hrs by resazurin based fluorescence assay relative to control", "format": "functional"}, "[27]": {"system": "Trypanosoma brucei brucei", "assay": "Antitrypanosomal activity against Trypanosoma brucei brucei trypomastigotes assessed as parasite viability measured after 48 hrs by resazurin based fluorescence assay", "format": "functional, organism-based"}, "[28]": {"system": "A549", "assay": "Antiproliferative activity against human A549 cells assessed as cell growth inhibition by MTT assay", "format": "functional, cell-based"}, "[29]": {"system": "HT-29", "assay": "Antiproliferative activity against human HT-29 cells assessed as cell growth inhibition by MTT assay", "format": "functional, cell-based"}, "[30]": {"system": "T-24", "assay": "Antiproliferative activity against human T24 cells assessed as cell growth inhibition by MTT assay", "format": "functional, cell-based"}, "[31]": {"system": "MCF7", "assay": "Antiproliferative activity against human MCF7 cells assessed as cell growth inhibition by MTT assay", "format": "functional, cell-based"}, "[32]": {"system": "HepG2", "assay": "Antiproliferative activity against human HepG2 cells assessed as cell growth inhibition by MTT assay", "format": "functional, cell-based"}}}
{"smiles": "COc1ccc2c(c1)CCC(Cc1ccc(O)cc1)C2=O", "note": "(configuration not stated)", "values": [{"measurement": "IC50", "setting": "[1]", "value": 3.5, "unit": "µM"}, {"measurement": "Activity", "setting": "[2]", "value": 25, "unit": "%"}]}
{"smiles": "O=C(/C=C/c1ccc(O)cc1)OC[C@H]1O[C@@H](Oc2ccc(O)c3c2C[C@H](O)CC3=O)C[C@@H](O)[C@@H]1O", "values": [{"measurement": "IC50", "setting": "[3]", "value": 57.5, "unit": "µM"}, {"measurement": "IC50", "setting": "[4]", "value": 61.2, "unit": "µM"}, {"measurement": "IC50", "setting": "[5]", "value": 2000, "unit": "nM"}]}
{"smiles": "COc1ccc2c(c1)CC/C(=C\\c1cc(C(F)(F)F)ccc1C(F)(F)F)C2=O", "values": [{"measurement": "IC50", "setting": "[6]", "value": 900, "unit": "nM"}]}
{"smiles": "O=C1/C(=C/c2ccc(Cl)cc2)CCc2ccccc21", "values": [{"measurement": "MIC", "setting": "[7]", "value": 3, "unit": "µg/mL"}]}
{"smiles": "C[C@H]1CC(=O)c2c(O)cccc2[C@@H]1O", "values": [{"measurement": "IC50", "setting": "[8]", "value": "> 520", "unit": "µM"}]}
{"smiles": "COc1ccc(C2C(C#N)=C(N)Oc3c2s/c(=N\\c2ccc(Br)cc2)n3/N=C2\\CCCc3cc(OC)ccc32)cc1", "note": "(configuration not stated)", "values": [{"measurement": "IC50", "setting": "[9]", "value": 930, "unit": "nM"}]}
{"smiles": "COc1ccc2c(c1)C(=O)/C(=C/c1ccc[nH]1)CC2", "values": [{"measurement": "IC50", "setting": "[10]", "value": 1960, "unit": "nM"}, {"measurement": "IC50", "setting": "[11]", "value": 707, "unit": "nM"}, {"measurement": "Ratio IC50", "setting": "[12]", "value": 2.8}]}
{"smiles": "Nc1ccc2c(c1)CC/C(=C\\c1ccccc1F)C2=O", "values": [{"measurement": "IC50", "setting": "[13]", "value": 250, "unit": "nM"}]}
{"smiles": "COc1ccc2c(c1)C(=O)CCC2", "values": [{"measurement": "Activity", "setting": "[14]", "value": ">50", "unit": "%"}, {"measurement": "Activity", "setting": "[15]", "value": ">50", "unit": "%"}, {"measurement": "Activity", "setting": "[16]", "value": 2.91, "unit": "%"}, {"measurement": "Activity", "setting": "[17]", "value": 35.47, "unit": "%"}, {"measurement": "Activity", "setting": "[18]", "value": 7.64, "unit": "%"}, {"measurement": "Activity", "setting": "[19]", "value": 9.69, "unit": "%"}]}
{"smiles": "O=C1CCCc2ccc(OCc3ccc(Cl)cc3)cc21", "values": [{"measurement": "IC50", "setting": "[20]", "value": 36, "unit": "nM"}]}
{"smiles": "O=C1/C(=C/c2cccc(Br)c2)CCc2ccc(O)cc21", "values": [{"measurement": "IC50", "setting": "[21]", "value": 754, "unit": "nM"}, {"measurement": "IC50", "setting": "[22]", "value": 13, "unit": "nM"}, {"measurement": "Ratio IC50", "setting": "[23]", "value": 58}]}
{"smiles": "COc1ccc2c(c1)CC[C@@H]1C2=NN(C2=NC(=O)CS2)[C@@H]1c1ccccc1", "values": [{"measurement": "MIC", "setting": "[24]", "value": 12.5, "unit": "µg/mL"}, {"measurement": "MIC", "setting": "[25]", "value": 12.5, "unit": "µg/mL"}]}
{"smiles": "O=C1/C(=C/c2ccccc2-c2ccccc2)CCc2cc(O)ccc21", "values": [{"measurement": "Activity", "setting": "[26]", "value": 0.7, "unit": "%"}, {"measurement": "IC50", "setting": "[27]", "value": 400, "unit": "nM"}]}
{"smiles": "CC(C)c1ccc2c(c1)C(C)(C)CC(Sc1nc(N)n(S(=O)(=O)c3ccc(Cl)c([N+](=O)[O-])c3)n1)C2=O", "note": "(configuration not stated)", "values": [{"measurement": "IC50", "setting": "[28]", "value": 9.89, "unit": "µM"}, {"measurement": "IC50", "setting": "[29]", "value": 22.2, "unit": "µM"}, {"measurement": "IC50", "setting": "[30]", "value": 26.9, "unit": "µM"}, {"measurement": "IC50", "setting": "[31]", "value": 28.9, "unit": "µM"}, {"measurement": "IC50", "setting": "[32]", "value": 21.4, "unit": "µM"}]}
